Results published in patent publication US10064883B2, “Lipiodol-based anti-tumour emulsion for treating cancer” (CHU DE DIJON, priority 2012, dated 2018).

Key:
Type in all cases: cell-based
[1] = tested on: SNU-449; assay: in vitro effectiveness of anticancer agents on CHC cell line SNU-449; settings: SNU-449 CHC cell line
[2] = tested on: HepG2; assay: in vitro effectiveness of anticancer agents on CHC cell line HepG2
[3] = tested on: SNU-398; assay: in vitro effectiveness of anticancer agents on CHC cell line SNU-398; settings: SNU-398 CHC cell line

Measured: effectiveness among the anticancer agents in vitro

CC(=O)[C@]1(O)Cc2c(O)c3c(c(O)c2[C@@H](O[C@H]2C[C@H](N)[C@H](O)[C@H](C)O2)C1)C(=O)c1ccccc1C3=O [Idarubicin]
most effective: [1] | [2] | [3]
